The values below come from PubChem BioAssay AID1996.

In brackets after ≈: the same amount, converted by molar mass.

For the data set the following is noted: buffer; pH 7.4; 200.0 µM.
For `CCCCN1C(C(=O)Nc2cc(C)on2)=C(O)c2ccccc2S1(=O)=O`, the kinetic solubility was > 56.6 µg/mL. For the molecule `CC1CCCN(S(=O)(=O)c2ccc3oc(=O)ccc3c2)C1` (stereo not given), the solubility (kinetic) amounted to 20 µg/mL (≈ 65.1 µM). `Cc1ccccc1NC(=O)NCCCCc1ccccc1` displayed a solubility (kinetic) of 1.5 µg/mL (≈ 5.31 µM). On to `O=C(C[n+]1ccccc1)Nc1ccc(Oc2ccccc2)cc1.[Cl-]`, for which the kinetic solubility was > 51.1 µg/mL. In turn, `COc1ccc(/C=C/C(=O)N2CC(C)OC(C)C2)cc1OC` (stereo not given) showed a solubility (kinetic) of 45.4 µg/mL (≈ 149 µM). For the molecule `CN(C(=O)Cn1cnc2sccc2c1=O)C1CCCCC1`, the kinetic solubility was > 45.8 µg/mL. For the molecule `C=CCSc1ncnc2c1oc1nc3c(cc12)COC(C)(C)C3`, the kinetic solubility came to 1.3 µg/mL (≈ 3.97 µM). On to `O=C(COc1cccc(F)c1)Nc1nc(-c2ccncc2)cs1`, for which the solubility (kinetic) worked out at 5 µg/mL (≈ 15.2 µM). As for `O=C(NCc1ncc(C(F)(F)F)cc1Cl)Nc1ccccc1`, the kinetic solubility is 3.1 µg/mL (≈ 9.4 µM).

For the molecule `O=C(c1ccccc1)N1CCN(CCc2ccccn2)CC1`, the kinetic solubility is > 44.3 µg/mL. For `CC(=O)NN1CCc2cc3ccc(C)cc3nc21`, the kinetic solubility was > 36.2 µg/mL. `CC(C)C(NS(=O)(=O)c1ccccc1)C(=O)N1CCCC1` (stereo not given): the kinetic solubility was > 46.6 µg/mL. With `Nc1ccc(C(=O)[O-])cc1.[K+]` the figure was 24.1 µg/mL; with `O=[N+]([O-])c1ccc(-c2cnc[nH]2)cc1`, > 28.4 µg/mL; with `Cc1ccc(N2CC(C(=O)NC3CCC(C)CC3)CC2=O)cc1` (stereo not given), 2.5 µg/mL (≈ 7.95 µM).

`COc1ccc(COc2cccc3ccc(C)nc23)cc1F` came in with a solubility (kinetic) of 5.2 µg/mL (≈ 17.5 µM). In turn, `Cc1ccc(C(=O)/C=C/c2ccc3ncccc3c2)cc1` gave a solubility (kinetic) of 1 µg/mL (≈ 3.66 µM).

Turning to `C=CCn1c(=S)sc2c(=O)[nH]c(C)nc21`, the solubility (kinetic) was > 35.9 µg/mL. `CN1CCN(c2ccc(CNS(=O)(=O)Cc3ccc(Cl)cc3)cc2)CC1` yielded a kinetic solubility of 2.8 µg/mL (≈ 7.11 µM).

Regarding `Cl.NCCSC1CC(=O)N(Cc2ccc(F)cc2)C1=O` (stereo not given), the solubility (kinetic) came to 37.9 µg/mL. `CCc1ccc(S(=O)(=O)NC2CC(C)(C)NC(C)(C)C2)cc1` returned a solubility (kinetic) of 35.8 µg/mL (≈ 110 µM).

As to `CCN(CC)c1nc2ccccc2n(Cc2cccc(OC)c2)c1=O`, the solubility (kinetic) worked out at 0.3 µg/mL (≈ 0.889 µM). Take `O=c1ccc(S(=O)(=O)N2CCCC2)c[nH]1`: the solubility (kinetic) was > 34.2 µg/mL. As for `Cc1ccc([N+](=O)[O-])cc1S(=O)(=O)NCCc1cn2ccccc2n1`, the kinetic solubility came out at 35 µg/mL (≈ 97.1 µM). Regarding `CC(=O)N1CCC(C(=O)NCCOc2ccc(C)cc2)CC1`, the kinetic solubility is > 45.7 µg/mL. Regarding `Cc1ccc(C(=O)OCC(=O)NCCc2ccccc2)cc1C`, the kinetic solubility was determined as 11.3 µg/mL (≈ 36.3 µM).

With `Cc1ccsc1C1CC(=O)Nc2ccccc2S1` (stereo not given), the kinetic solubility was found to be 35.6 µg/mL (≈ 129 µM).

With `CSc1ccccc1NC(=O)c1ccc([N+](=O)[O-])cc1`, the solubility (kinetic) stood at 15.9 µg/mL (≈ 55.1 µM). `O=C(COC(=O)c1ccc(N2CCCC2=O)cc1)c1ccccc1`: the solubility (kinetic) was 3.7 µg/mL (≈ 11.4 µM). For `CC12CCC(=O)N1C(C(=O)Nc1nc3ccccc3s1)CS2` (stereo not given), the solubility (kinetic) was 13 µg/mL (≈ 39 µM).

For the molecule `O=C(c1ccncc1)N1CCN(c2ccc3ccccc3n2)CC1`, the solubility (kinetic) was > 47.8 µg/mL.

For the molecule `O=C(Nc1ccccc1C(=O)Nc1ccncc1)c1ccccc1`, the solubility (kinetic) amounted to 6 µg/mL (≈ 18.9 µM). In the case of `CN(CC(=O)Nc1cccc(F)c1)C(=O)c1sc2ccccc2c1Cl`, the kinetic solubility was found to be 23 µg/mL (≈ 61 µM). Regarding `COc1ccccc1N(C)S(=O)(=O)c1ccc(C(=O)Nc2cccc(Br)c2)cc1`, the kinetic solubility was found to be 3 µg/mL (≈ 6.31 µM).

As to `COc1ccc(CNC(=O)CC23CC4CC(CC(C4)C2)C3)cc1`, the solubility (kinetic) was 1.6 µg/mL (≈ 5.1 µM). Molecule `COC(=O)c1ccc(S(=O)(=O)c2ccc(Cl)cc2)c(N)c1` gave a kinetic solubility of 1.2 µg/mL (≈ 3.68 µM). The molecule `Nc1c(C(=O)C2CC2)sc2nc3c(cc12)CCC3` registered a solubility (kinetic) of 2.2 µg/mL (≈ 8.52 µM). For the molecule `S=c1[nH]c2ccccc2n1CCOc1ccccc1`, the kinetic solubility was 20.2 µg/mL (≈ 74.7 µM). Take `O=C(CCc1ccccc1)NCC1(c2ccccc2)CCCC1`: the solubility (kinetic) was 23.8 µg/mL (≈ 77.4 µM). With `Cc1ccc(NC(=O)c2ccc(Cl)nc2)cc1` the figure was 9.3 µg/mL (≈ 37.7 µM); with `O=C(Nc1ccccc1)C(=O)Nc1cccnc1`, 6.9 µg/mL (≈ 28.6 µM). As for `NC(=O)c1oc2ccccc2c1NC(=O)C1COc2ccccc2O1` (stereo not given), the kinetic solubility is < 0.4 µg/mL.

As for `CSc1nsc(SCC(=O)Nc2ccc(F)cc2)n1`, the solubility (kinetic) came out at 39.6 µg/mL (≈ 126 µM). For `O=C(COC(=O)Cc1ccsc1)Nc1ccc(Cl)cn1`, the solubility (kinetic) was > 46.6 µg/mL. Molecule `CCCCn1c(N)c(N(CC)C(=O)c2cccs2)c(=O)[nH]c1=O` displayed a solubility (kinetic) of 10.1 µg/mL (≈ 30 µM). As to `CCOc1ccccc1C(=O)NC(C(=O)NCCc1ccccn1)C(C)C` (stereo not given), the solubility (kinetic) is > 55.4 µg/mL. Take `Cc1nn(C)c(C)c1NS(=O)(=O)c1ccc(Cl)cc1`: the kinetic solubility is > 45 µg/mL. Consider `O=C(CCN1C(=O)c2ccccc2C1=O)NCCCn1ccnc1`, for which the kinetic solubility is > 49 µg/mL. On to `CC(=O)N1CCN(C(=O)c2ccc3c(c2)OCCO3)CC1`, for which the solubility (kinetic) was > 43.5 µg/mL. Molecule `COc1ccc(-c2cc(C(=O)NC3CCCC3)c3ccccc3n2)cc1OC` came in with a solubility (kinetic) of 1.6 µg/mL (≈ 4.25 µM). In the case of `CC(C)n1c(CN(C)c2ccccc2)nc2ccccc21.Cl`, the solubility (kinetic) is 42.4 µg/mL. With `C=CCOn1c(=O)c(-c2ccc(C)cc2)[n+]([O-])c2ccccc21` the figure was 5.7 µg/mL (≈ 18.5 µM); with `CC(C)N1CC(COc2ccc(Cl)cc2Cl)OC1=O` (stereo not given), > 45.6 µg/mL. Take `O=C1CCCN1CCCNc1ncnc2sccc12`: the kinetic solubility is > 41.5 µg/mL.

`CC(CCc1ccc(O)cc1)NCc1ccc(Cl)cc1Cl` (stereo not given): the kinetic solubility was > 48.6 µg/mL.

As for `O=C(NN=C1CCCCCCC1)c1ccc(F)cc1`, the kinetic solubility was > 39.3 µg/mL. Regarding `CCCN1CCN(CCNC(=O)Nc2cc(C)ccc2C)CC1`, the solubility (kinetic) was > 47.8 µg/mL. Take `COc1ccc(NS(=O)(=O)c2c(C)[nH]c(=O)[nH]c2=O)cc1OC`: the solubility (kinetic) was > 51.2 µg/mL. As for `CC1(C)CC2(CCO1)C(Nc1ccccc1)=NC(=S)N2c1ccccc1` (stereo not given), the solubility (kinetic) is < 0.3 µg/mL. In the case of `Cc1ccc(NC(=O)Cc2ccccc2)cc1S(=O)(=O)N1CCOCC1`, the solubility (kinetic) is > 56.2 µg/mL.

`Cc1ccc(OCc2cc(C(=O)NC3CCCCC3)no2)cn1` showed a solubility (kinetic) of 34 µg/mL (≈ 108 µM). With `CC(NC(=O)COC(=O)C12CC3CC(CC(O)(C3)C1)C2)c1ccccc1` (stereo not given) the figure was > 53.6 µg/mL; with `Cc1ccc(C(=O)NCCCNc2ccccc2[N+](=O)[O-])cc1`, 3.4 µg/mL (≈ 10.9 µM). `O=C(Cc1csc(NC(=O)c2ccc(F)cc2)n1)NO`: the kinetic solubility is > 44.3 µg/mL. `CC(C)CNC(=O)CC1Nc2ccccc2NC1=O` (stereo not given) had a solubility (kinetic) of 38.8 µg/mL (≈ 148 µM).

For the molecule `Nc1nc(NCc2ccco2)nc(N2CCOCC2)c1[N+](=O)[O-]`, the kinetic solubility was > 48 µg/mL. In the case of `Cn1c(SCC(=O)N2CCCCCC2)nnc1-c1ccco1`, the kinetic solubility was > 48.1 µg/mL. On to `CCOc1ccc(C(C)=O)cc1CN1C(=O)C(=O)N(CC)C1=O`, for which the kinetic solubility worked out at 41.5 µg/mL (≈ 130 µM). In turn, `CCn1c2ccccc2c2cc(CC(N)=O)ccc21` registered a solubility (kinetic) of 8 µg/mL (≈ 31.7 µM). This solubility kinetic lies about 5.2-fold lower than the previous one.

With `Cl.O=C(OCCN1CCCCC1)c1cccc(Cl)c1`, the kinetic solubility was > 45.6 µg/mL. Turning to `CCc1cccc(CC)c1N(COC)C(=O)Cn1cnc2ccccc21`, the kinetic solubility is > 52.7 µg/mL. Regarding `COC(=O)c1cccc(NC(=O)Nc2ccc(Cl)cc2Cl)c1`, the kinetic solubility is < 0.4 µg/mL. Molecule `CC1(C)CC(=O)c2c(Cc3ccccc3)noc2C1` displayed a kinetic solubility of 33.4 µg/mL (≈ 131 µM). Consider `CCN1CCN(c2nc(Nc3cccc(F)c3)nc(N)c2[N+](=O)[O-])CC1`, for which the kinetic solubility is > 54.2 µg/mL. With `Cc1ccccc1S(=O)(=O)c1cc2ccccc2nc1N` the figure was 1.5 µg/mL (≈ 5.03 µM).
